The record followed here is patent publication US20140220058A1, “VACCINE COMPOSITION FOR TRANSDERMAL OR MUCOSAL ADMINISTRATION” (NITTO DENKO CORPORATION, priority 2013, published 2014).

Entries after “also recorded” stand apart in the source; their conditions may differ.

The test system of experiment [1] is IFN-γ producing cells. The experiment can be described thus: Promotion of immunity induction via transdermal immunization (conclusion from Tables 1, 2, 3, 8 and 10). Format: in vivo, mouse. As to conditions: acid as component of tape, liquid or cream formulations.
In experiment [2] the test system is IFN-γ producing cells. The experiment can be described thus: Promotion of immunity induction using a mucosal vaccine (conclusion from Tables 4, 5 and 6). The experiment is classed as in vivo, mouse. As to conditions: acid as component of sublingual liquid formulations.

In the case of `CCCCCCCC/C=C\CCCCCCCC(=O)O` [oleic acid], the “promotion of immunity induction via transdermal immunization (in words)” value in experiment [1] is “suitable; also recorded: preferable”.
On to `CCCCCCCCCCCCCCCC(=O)O` [palmitic acid], for which the “promotion of immunity induction via transdermal immunization (in words)” value in experiment [1] was “suitable; also recorded: particularly preferable”.
With `O=C(O)c1ccccc1O` [salicylic acid], in experiment [2], the “promotion of immunity induction using a mucosal vaccine (in words)” value (“promotion … using a mucosal vaccine (in words)” for short) was “suitable”. For the same molecule, in experiment [1], the “promotion of immunity induction via transdermal immunization (in words)” value was “suitable; also recorded: particularly preferable”.
Take `O=C(O)CC(O)(CC(=O)O)C(=O)O` [citric acid]: the “promotion … using a mucosal vaccine (in words)” value in experiment [2] is “suitable; also recorded: particularly preferable”.
Turning to `O=C(O)CC(O)C(=O)O` (stereo not shown) [malic acid], the “promotion … using a mucosal vaccine (in words)” value in experiment [2] is reported as “suitable”. Also, the “promotion of immunity induction via transdermal immunization (in words)” value in experiment [1] was “suitable; also recorded: preferable”.
In the case of `O=C(O)/C=C\C(=O)O` [maleic acid], the “promotion … using a mucosal vaccine (in words)” value in experiment [2] is listed as “suitable; also recorded: preferable”. Besides, the “promotion of immunity induction via transdermal immunization (in words)” value in experiment [1] was “suitable; also recorded: preferable”.
Consider `CCCCCCCCCCCCCC(=O)O` [myristic acid], for which, in experiment [2], the “promotion … using a mucosal vaccine (in words)” value was “suitable; also recorded: particularly preferable”. The “promotion of immunity induction via transdermal immunization (in words)” value in experiment [1] was “suitable; also recorded: particularly preferable”.
For the molecule `CS(=O)(=O)O` [methanesulfonic acid], the “promotion of immunity induction via transdermal immunization (in words)” value in experiment [1] is given as “suitable; also recorded: particularly preferable”.
For `CCCCCCCCCCCCCCCCCC(=O)O` [stearic acid], the “promotion of immunity induction via transdermal immunization (in words)” value in experiment [1] was “suitable; also recorded: particularly preferable”.
Regarding `CC(C)CCCCCCCCCCCCCCC(=O)O` [isostearic acid], the “promotion … using a mucosal vaccine (in words)” value in experiment [2] is “suitable; also recorded: particularly preferable”. For the same molecule, in experiment [1], the “promotion of immunity induction via transdermal immunization (in words)” value is on record as “suitable; also recorded: preferable”.
As for `CC(O)C(=O)O` (stereo not shown) [lactic acid], in experiment [2], the “promotion … using a mucosal vaccine (in words)” value is “suitable; also recorded: particularly preferable”. For the same molecule, the “promotion of immunity induction via transdermal immunization (in words)” value in experiment [1] was “suitable; also recorded: particularly preferable”.
`CCCCCCCCCC(=O)O` [decanoic acid]: the “promotion of immunity induction via transdermal immunization (in words)” value in experiment [1] is on record as “suitable; also recorded: particularly preferable”.
Take `CCCCCCCCCCCC(=O)O` [lauric acid]: the “promotion of immunity induction via transdermal immunization (in words)” value in experiment [1] is “suitable; also recorded: particularly preferable”.
